In patent US20160101067A1, “SUPRAMOLECULAR COMPLEXES OF POLYANIONIC POLYMERS AND SPERMIDINE IN TISSUE MAINTENANCE AND REPAIR” (TIXUPHARMA, priority 2013, published 2016):

Tested on: human fibroblasts (ATCC-CRL-2703)
Assay: Fibroblast proliferation, MTT coloration
Assay type: cell-based
Procedure: These supramolecular complexes were tested to evaluate the stimulatory activity on human fibroblasts (ATCC-CRL-2703). […] Cells were exposed to each complex for 24 and 48 hours (medium was replaced every 24 h) at 37° C. and 5% CO2. At the end of incubation period, MTT coloration was performed in order to evaluate cell viability and the increasing proliferating rate compared to untreated control cells. For each determination 6 tests were carried out. After exposure, cells were washed with […] of PBS, then 200 μl of MTT-medium are added to each culture well and incubated for 4 hours at 37° C. and 5% CO2. MTT medium is then removed and 200 μl of MTT dissolving solution (10% Triton X-100 and 0.1 N HCl in dry isopropanol) were added. After shaking on a rotating plate for 20-30′ to dissolve crystals and homogenize the solution, absorbance was read at 570 nm; background reading at 690 nm.

`NCCCCNCCCN` [Spermidine (Spd) 3HCl, N-(3-aminopropyl)-1,4-butanediamine] was tested, and the “% Proliferative increase at 24 h” value (Spd 3HCl 10 nM) was 31.86%, the “% Proliferative increase at 48 h” value (Spd 3HCl 10 nM) was 35.96% and the “% Proliferative increase at 24 h” value (Spd 3HCl 100 nM) was 26.27%. For the same compound, the “% Proliferative increase at 48 h” value (Spd 3HCl 100 nM) was 29.39%, the “% Proliferative increase at 24 h” value (Spd 3HCl 1 μM) was 7.55% and the “% Proliferative increase at 48 h” value (Spd 3HCl 1 μM) was 13.01%. The “% Proliferative increase at 24 h” value (Spd 3HCl 10 μM) was 2.3%, the “% Proliferative increase at 48 h” value (Spd 3HCl 10 μM) was 8.48% and the “% Proliferative increase at 24 h” value (Spd 3HCl 100 μM) was 1.31%. For the same compound, the “% Proliferative increase at 48 h” value (Spd 3HCl 100 μM) was 4.09%, the “% Proliferative increase at 24 h” value (Spd 3HCl 1 mM) was −0.16% and the “% Proliferative increase at 48 h” value (Spd 3HCl 1 mM) was −3.22%. The “% Proliferative increase at 24 h” value (Spd 3HCl 10 mM) was −9.85%, the “% Proliferative increase at 48 h” value (Spd 3HCl 10 mM) was −9.5% and the “effect on fibroblast proliferation at mmolar concentration” value (mmolar concentration) was “suppressive effect”. The “pattern of the proliferative effect over concentration” value (serial dilution) was “bimodal pattern” and the “effect on fibroblast proliferation at μmolar or nmolar levels” value (μmolar or nmolar levels) was “positive effect”.
